Source: PubChem BioAssay AID248 (DTP/NCI, 2004)
Values joined by “and” are separate entries in the source; they are usually repeats but may differ in a detail not shown here. Equal values may be shown once. Toxic doses and inconclusive results are not listed. Peptide text beside a SMILES is read from it. * marks the point of attachment. Cbz = O=C(OCc1ccccc1)*; Bn = c1ccc(C*)cc1

Test system: L1210 leukemia ip in BDF1 mice, survival T/C
Assay: NCI In Vivo Anticancer Drug Screen. Data for tumor model L1210 Leukemia (intraperitoneal) in B6D2F1 (BDF1) mice
Conditions: higher = longer survival
Procedure, shortened: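 Survival endpoint. Drug-treated group vs vehicle group, expressed as T divided by C. Tumor passaged by transplantation.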

[1] = endpoint: mean survival time, dose: 50.0 mg/kg/injection, schedule: Q01DX001 (ip), vehicle: other
[2] = endpoint: mean survival time, dose: 100.0 mg/kg/injection, schedule: Q01DX001 (ip), vehicle: other
[3] = endpoint: mean survival time, dose: 100.0 mg/kg/injection, schedule: Q04DX003 (ip), vehicle: saline
[4] = endpoint: mean survival time, dose: 100.0 mg/kg/injection, schedule: Q01DX001 (ip), vehicle: carboxymethylcellulose (CMC)
[5] = endpoint: mean survival time, dose: 200.0 mg/kg/injection, schedule: Q01DX001 (ip), vehicle: carboxymethylcellulose (CMC)
[6] = endpoint: mean survival time, dose: 400.0 mg/kg/injection, schedule: Q01DX001 (ip), vehicle: carboxymethylcellulose (CMC)
[7] = endpoint: mean survival time, dose: 100.0 mg/kg/injection, schedule: Q04DX003 (ip), vehicle: Klucel (hydroxypropylcellulose) (HPC)
[8] = endpoint: mean survival time, dose: 200.0 mg/kg/injection, schedule: Q04DX003 (ip), vehicle: Klucel (hydroxypropylcellulose) (HPC)
[9] = endpoint: mean survival time, dose: 400.0 mg/kg/injection, schedule: Q04DX003 (ip), vehicle: Klucel (hydroxypropylcellulose) (HPC)
[10] = endpoint: mean survival time, dose: 200.0 mg/kg/injection, schedule: Q04DX003 (ip), vehicle: saline
[11] = endpoint: mean survival time, dose: 400.0 mg/kg/injection, schedule: Q04DX003 (ip), vehicle: saline
[12] = endpoint: mean survival time, dose: 50.0 mg/kg/injection, schedule: Q01DX001 (ip), vehicle: carboxymethylcellulose (CMC)
[13] = endpoint: mean survival time, dose: 100.0 mg/kg/injection, schedule: Q01DX009 (ip), vehicle: saline
[14] = endpoint: mean survival time, dose: 200.0 mg/kg/injection, schedule: Q01DX009 (ip), vehicle: saline

For O=C(CCCC(=O)N/N=C/c1ccc2ccccc2n1)N/N=C\c1ccc2ccccc2n1, the T/C [1] was 95 % of control, the T/C [2] was 88 % of control and the T/C (endpoint: mean survival time, dose: 400.0 mg/kg/injection, schedule: Q01DX001 (ip), vehicle: other) was 95 % of control.
For NC(=O)c1ccccc1NC(=O)c1ccccc1Cl, the T/C (endpoint: mean survival time, dose: 100.0 mg/kg/injection, schedule: Q01DX009 (ip), vehicle: Klucel (hydroxypropylcellulose) (HPC)) was 102 % of control, the T/C (endpoint: mean survival time, dose: 200.0 mg/kg/injection, schedule: Q01DX009 (ip), vehicle: Klucel (hydroxypropylcellulose) (HPC)) was 100 % of control and the T/C (endpoint: mean survival time, dose: 400.0 mg/kg/injection, schedule: Q01DX009 (ip), vehicle: Klucel (hydroxypropylcellulose) (HPC)) was 93 % of control.
With Nc1nc(N)c2nc(CN3CCCc4cc(C(=O)NC(CCC(=O)O)C(=O)O)ccc43)cnc2n1 (centres undefined) the T/C [3] was 207 % of control.
In the case of Cc1cc[n+](C2CC(C)(C)c3ccccc3C2=O)cc1 (centres undefined), the T/C (endpoint: mean survival time, dose: 12.5 mg/kg/injection, schedule: Q01DX001 (ip), vehicle: Klucel (hydroxypropylcellulose) (HPC)) is reported as 100 % of control, the T/C (endpoint: mean survival time, dose: 25.0 mg/kg/injection, schedule: Q01DX001 (ip), vehicle: Klucel (hydroxypropylcellulose) (HPC)) is reported as 113 % of control and the T/C (endpoint: mean survival time, dose: 50.0 mg/kg/injection, schedule: Q01DX001 (ip), vehicle: Klucel (hydroxypropylcellulose) (HPC)) is reported as 98 % of control.
For COc1ccccc1/C=N\NC(=O)c1ccco1, the T/C [4] was 95 % of control, the T/C [5] was 93 % of control and the T/C [6] was 95 % of control.
For O=[N+]([O-])c1cc(/C=N\Nc2ccccn2)ccc1Cl, the T/C [7] was 112 % of control, the T/C [8] was 101 % of control and the T/C [9] was 101 % of control.
With O=C1c2cc([N+](=O)[O-])ccc2-c2c(F)cc(F)cc21 the T/C [3] was 104 % of control, the T/C [10] was 89 % of control and the T/C [11] was 91 % of control.
For CCOC(=O)c1cc(C)nc(Cl)c1C#N, the T/C [4] was 96 % of control, the T/C [5] was 96 % of control and the T/C [6] was 93 % of control.
For CC(=O)NC(CO)C(O)C(O)C(O)CO (centres undefined), the T/C (endpoint: mean survival time, dose: 100.0 mg/kg/injection, schedule: Q04DX002 (ip), vehicle: saline) was 101 % of control and 89 % of control, the T/C (endpoint: mean survival time, dose: 200.0 mg/kg/injection, schedule: Q04DX002 (ip), vehicle: saline) was 93 % of control and 104 % of control and the T/C (endpoint: mean survival time, dose: 400.0 mg/kg/injection, schedule: Q04DX002 (ip), vehicle: saline) was 93 % of control. For the same compound, the T/C (endpoint: mean survival time, dose: 800.0 mg/kg/injection, schedule: Q04DX002 (ip), vehicle: saline) was 93 % of control.
For CCOC(=O)/C=C(\C)N(C(=O)N(CCCl)N=O)c1ccccc1, the T/C (endpoint: mean survival time, dose: 0.12 mg/kg/injection, schedule: Q01DX009 (ip), vehicle: Klucel (hydroxypropylcellulose) (HPC)) was 118 % of control, the T/C (endpoint: mean survival time, dose: 0.5 mg/kg/injection, schedule: Q01DX009 (ip), vehicle: Klucel (hydroxypropylcellulose) (HPC)) was 159 % of control and the T/C (endpoint: mean survival time, dose: 1.0 mg/kg/injection, schedule: Q01DX001 (ip), vehicle: carboxymethylcellulose (CMC)) was 103 % of control. The T/C (endpoint: mean survival time, dose: 1.0 mg/kg/injection, schedule: Q01DX009 (ip), vehicle: Klucel (hydroxypropylcellulose) (HPC)) was 232 % of control, the T/C (endpoint: mean survival time, dose: 2.0 mg/kg/injection, schedule: Q01DX001 (ip), vehicle: carboxymethylcellulose (CMC)) was 103 % of control and 119 % of control and the T/C (endpoint: mean survival time, dose: 4.0 mg/kg/injection, schedule: Q01DX001 (ip), vehicle: carboxymethylcellulose (CMC)) was 109 % of control. For the same compound, the T/C (endpoint: mean survival time, dose: 6.0 mg/kg/injection, schedule: Q01DX009 (ip), vehicle: carboxymethylcellulose (CMC)) was 161 % of control, the T/C (endpoint: mean survival time, dose: 8.0 mg/kg/injection, schedule: Q01DX001 (ip), vehicle: carboxymethylcellulose (CMC)) was 104 % of control and the T/C (endpoint: mean survival time, dose: 8.8 mg/kg/injection, schedule: Q01DX009 (ip), vehicle: carboxymethylcellulose (CMC)) was 163 % of control. The T/C (endpoint: mean survival time, dose: 13.0 mg/kg/injection, schedule: Q01DX009 (ip), vehicle: Klucel (hydroxypropylcellulose) (HPC)) was 120 % of control, the T/C (endpoint: mean survival time, dose: 13.3 mg/kg/injection, schedule: Q01DX009 (ip), vehicle: carboxymethylcellulose (CMC)) was 121 % of control and the T/C (endpoint: mean survival time, dose: 15.0 mg/kg/injection, schedule: Q01DX001 (ip), vehicle: carboxymethylcellulose (CMC)) was 153 % of control. The T/C (endpoint: mean survival time, dose: 20.0 mg/kg/injection, schedule: Q01DX009 (ip), vehicle: carboxymethylcellulose (CMC)) was 110 % of control, the T/C (endpoint: mean survival time, dose: 30.0 mg/kg/injection, schedule: Q01DX001 (ip), vehicle: carboxymethylcellulose (CMC)) was 104 % of control and 231 % of control and 86 % of control and the T/C (endpoint: mean survival time, dose: 30.0 mg/kg/injection, schedule: Q01DX009 (ip), vehicle: Klucel (hydroxypropylcellulose) (HPC)) was 90 % of control. The T/C (endpoint: mean survival time, dose: 30.0 mg/kg/injection, schedule: Q01DX009 (ip), vehicle: carboxymethylcellulose (CMC)) was 100 % of control, the T/C (endpoint: mean survival time, dose: 45.0 mg/kg/injection, schedule: Q01DX001 (ip), vehicle: carboxymethylcellulose (CMC)) was 155 % of control and the T/C (endpoint: mean survival time, dose: 60.0 mg/kg/injection, schedule: Q01DX001 (ip), vehicle: carboxymethylcellulose (CMC)) was 109 % of control and 204 % of control. For the same compound, the T/C (endpoint: mean survival time, dose: 120.0 mg/kg/injection, schedule: Q01DX001 (ip), vehicle: carboxymethylcellulose (CMC)) was 114 % of control.
COc1ccc(CN2CCCN(Cc3ccc(OC)cc3OC)C2c2ccc(N(CCCl)CCCl)cc2F)c(OC)c1 was tested, and the T/C [12] was 104 % of control, the T/C [4] was 98 % of control and the T/C [5] was 104 % of control. For the same compound, the T/C [6] was 106 % of control.
With CC1=NC(C#N)=C(C#N)N=C(c2ccccc2)C1 the T/C (endpoint: mean survival time, dose: 100.0 mg/kg/injection, schedule: Q01DX009 (ip), vehicle: gum acacia) was 99 % of control and the T/C (endpoint: mean survival time, dose: 200.0 mg/kg/injection, schedule: Q01DX009 (ip), vehicle: gum acacia) was 91 % of control.
In the case of COc1cc([C@@H]2c3cc4c(cc3C[C@H]3COC(=O)[C@@H]32)OCO4)cc(OC)c1OC, the T/C (endpoint: mean survival time, dose: 3.12 mg/kg/injection, schedule: Q01DX009 (ip), vehicle: saline) is reported as 94 % of control, the T/C (endpoint: mean survival time, dose: 6.25 mg/kg/injection, schedule: Q01DX009 (ip), vehicle: saline) is reported as 109 % of control and the T/C (endpoint: mean survival time, dose: 12.5 mg/kg/injection, schedule: Q01DX001 (ip), vehicle: saline) is reported as 115 % of control. The T/C (endpoint: mean survival time, dose: 12.5 mg/kg/injection, schedule: Q01DX009 (ip), vehicle: saline) was 110 % of control, the T/C (endpoint: mean survival time, dose: 25.0 mg/kg/injection, schedule: Q01DX001 (ip), vehicle: saline) was 115 % of control and the T/C (endpoint: mean survival time, dose: 25.0 mg/kg/injection, schedule: Q01DX009 (ip), vehicle: saline) was 116 % of control. The T/C (endpoint: mean survival time, dose: 45.0 mg/kg/injection, schedule: Q01DX001 (ip), vehicle: saline) was 123 % of control, the T/C [1] was 109 % of control and the T/C (endpoint: mean survival time, dose: 50.0 mg/kg/injection, schedule: Q01DX001 (ip), vehicle: saline with Tween-80) was 110 % of control. For the same compound, the T/C (endpoint: mean survival time, dose: 50.0 mg/kg/injection, schedule: Q01DX001 (ip), vehicle: saline) was 111 % of control and 117 % of control, the T/C (endpoint: mean survival time, dose: 50.0 mg/kg/injection, schedule: Q04DX003 (ip), vehicle: saline with Tween-80) was 116 % of control and the T/C [2] was 116 % of control. The T/C (endpoint: median survival time, dose: 2.5 mg/kg/injection, schedule: Q01DX009 (ip), vehicle: saline) was 111 % of control, the T/C (endpoint: median survival time, dose: 5.0 mg/kg/injection, schedule: Q01DX009 (ip), vehicle: saline) was 122 % of control and the T/C (endpoint: median survival time, dose: 10.0 mg/kg/injection, schedule: Q01DX009 (ip), vehicle: saline) was 88 % of control.
For C#CCOCCCC(=O)O, the T/C [13] was 91 % of control and the T/C [14] was 89 % of control.
In the case of C/C=C1\CCCCN(Cc2ccccc2)CCC1, the T/C (endpoint: mean survival time, dose: 75.0 mg/kg/injection, schedule: Q01DX001 (ip), vehicle: saline) is reported as 104 % of control and the T/C (endpoint: mean survival time, dose: 150.0 mg/kg/injection, schedule: Q01DX001 (ip), vehicle: saline) is reported as 98 % of control.
For COc1cc2cc(-c3cc(OC)c(OC)c(OC)c3)c3c(c2cc1OC)CNC3=O, the T/C [13] was 90 % of control, the T/C [3] was 93 % of control and the T/C [14] was 90 % of control. The T/C [10] was 101 % of control and the T/C [11] was 101 % of control.
With c1ccc2c(c1)CC(=[N+]1CCCCC1)Cc1ccccc1-2 the T/C [13] was 92 % of control, the T/C [3] was 103 % of control and the T/C [14] was 92 % of control. For the same compound, the T/C [10] was 89 % of control and the T/C [11] was 87 % of control.
CC(Nc1nc(SCc2ccccc2)c2ncn(C3OC(CO)C(O)C3O)c2n1)C(=O)O (centres undefined) was tested, and the T/C [12] was 107 % of control, the T/C [4] was 109 % of control and the T/C [5] was 104 % of control. For the same compound, the T/C [6] was 104 % of control.
With O=C(Sc1cccc2ccccc12)c1ccc([N+](=O)[O-])cc1 the T/C [7] was 95 % of control, the T/C [8] was 97 % of control and the T/C [9] was 95 % of control.
With COC(=O)C(Cc1ccc(O)cc1)NC(=O)C(CSCc1ccccc1)NC(=O)OCc1ccccc1 (centres undefined) (Cbz-Cys(Bn)-Tyr-OMe; configuration not given here) the T/C (endpoint: mean survival time, dose: 100.0 mg/kg/injection, schedule: Q04DX003 (ip), vehicle: DMSO) was 94 % of control, the T/C (endpoint: mean survival time, dose: 200.0 mg/kg/injection, schedule: Q04DX003 (ip), vehicle: DMSO) was 98 % of control and the T/C (endpoint: mean survival time, dose: 400.0 mg/kg/injection, schedule: Q04DX003 (ip), vehicle: DMSO) was 91 % of control.
For O=C(CC(c1ccccc1)(c1ccccc1)c1ccccc1)c1ccccc1, the T/C [12] was 98 % of control, the T/C [4] was 93 % of control and the T/C [5] was 90 % of control. The T/C [6] was 93 % of control.
